Data set [1] has as its target T1, Nucleotide-binding oligomerization domain-containing protein 1 (Homo sapiens) (UniProt Q9Y239).
T1 sequence (whole entry): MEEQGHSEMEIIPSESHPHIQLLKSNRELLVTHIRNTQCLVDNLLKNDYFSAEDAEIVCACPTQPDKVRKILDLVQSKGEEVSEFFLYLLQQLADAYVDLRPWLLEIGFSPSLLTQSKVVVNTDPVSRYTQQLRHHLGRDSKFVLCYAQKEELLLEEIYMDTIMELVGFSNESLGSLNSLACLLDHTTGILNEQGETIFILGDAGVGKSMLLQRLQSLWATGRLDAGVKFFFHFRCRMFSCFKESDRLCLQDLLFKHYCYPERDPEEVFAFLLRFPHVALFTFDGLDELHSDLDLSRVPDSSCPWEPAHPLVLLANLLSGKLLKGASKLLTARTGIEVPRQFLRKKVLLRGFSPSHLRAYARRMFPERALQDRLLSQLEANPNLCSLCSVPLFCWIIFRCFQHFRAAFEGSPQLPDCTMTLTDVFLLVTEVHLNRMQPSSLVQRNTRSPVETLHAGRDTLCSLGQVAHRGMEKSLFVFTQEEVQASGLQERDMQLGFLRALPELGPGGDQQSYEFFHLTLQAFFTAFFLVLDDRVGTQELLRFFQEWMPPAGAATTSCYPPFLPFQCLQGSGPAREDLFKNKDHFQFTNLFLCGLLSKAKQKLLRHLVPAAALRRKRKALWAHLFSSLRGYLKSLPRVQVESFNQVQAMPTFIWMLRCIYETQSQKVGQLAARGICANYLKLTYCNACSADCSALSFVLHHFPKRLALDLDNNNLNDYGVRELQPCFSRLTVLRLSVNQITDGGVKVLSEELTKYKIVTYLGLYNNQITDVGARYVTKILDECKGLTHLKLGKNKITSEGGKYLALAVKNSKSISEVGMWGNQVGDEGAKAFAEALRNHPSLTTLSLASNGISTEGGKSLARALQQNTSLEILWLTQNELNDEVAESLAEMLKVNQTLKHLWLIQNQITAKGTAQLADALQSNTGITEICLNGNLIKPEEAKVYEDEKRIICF
The data set is described as follows: Agonist activity at human NOD1 expressed in HEK-Blue cells assessed as induction of NF-kB transcriptional activity at 20 uM after 18 hrs by SEAP reporter gene assay. The format is cell-based.

In data set [2] the test system is PBMC. The data set can be described thus: Immunostimulatory activity in human PBMC assessed as increase in TNF-alpha release at 2 uM after 18 hrs by flow cytometry. The format is functional, cell-based. For orientation: Flow cytometry measures light scatter and fluorescence of single cells or particles in a stream.
Data set [3] concerns PBMC. The data set can be described thus: Immunostimulatory activity in human PBMC assessed as increase in IL-17A release at 2 uM after 18 hrs in presence of LPS by flow cytometry. The format is functional, cell-based.
Data set [4] has as its system PBMC. The data set can be described thus: Immunostimulatory activity in human PBMC assessed as increase in IL-10 release at 2 uM after 18 hrs by flow cytometry. The format is functional, cell-based.
The subject of data set [5] is PBMC. The data set can be described thus: Immunostimulatory activity in human PBMC assessed as increase in IL-2 release at 2 uM after 18 hrs in presence of LPS by flow cytometry. The format is functional, cell-based.
Data set [6] relates to PBMC. The data set can be described thus: Immunostimulatory activity in human PBMC assessed as increase in IL-4 release at 2 uM after 18 hrs in presence of LPS by flow cytometry. The format is functional, cell-based.
A short description of data set [7]: Drug metabolism in HEK293 cells assessed as retention time at 2 uM by LC-MS analysis. The format is ADME, cell-based. Conditions: human, hek293, 2 µM.
Data set [8] relates to PBMC. The data set can be described thus: Immunostimulatory activity in human PBMC assessed as increase in IL-10 release at 2 uM after 18 hrs in presence of LPS by flow cytometry relative to control. The format is functional.
A short description of data set [9]: Pyrogenic activity in Atlantic horseshoe crab blood limulus amebocyte lysate by bacterial endotoxin test. The format is ADME. The following applies: limulus polyphemus.
Data set [10] can be described thus: Stability in HEK293 cells at 2 uM up to 18 hrs by LC-MS analysis. The following applies: human, hek293, 18 h. The format is ADME, cell-based.
In data set [11] the test system is PBMC. The data set can be described thus: Immunostimulatory activity in human PBMC assessed as increase in IL-6 release at 2 uM after 18 hrs in presence of LPS by flow cytometry relative to control. The format is functional.
Data set [12] relates to PBMC. The data set can be described thus: Immunostimulatory activity in human PBMC assessed as increase in IL-6 release at 2 uM after 18 hrs by flow cytometry. The format is functional, cell-based.
Data set [13] is described as follows: Drug uptake in HEK293 cells cytosol at 2 uM after 18 hrs by LC-MS analysis. The format is ADME, cell-based. Conditions: human.
For data set [14], the system named is PBMC. The data set is described as follows: Immunostimulatory activity in human PBMC assessed as increase in TNF-alpha release at 2 uM after 18 hrs in presence of LPS by flow cytometry relative to control. The format is functional.
The test system of data set [15] is Mus musculus. The data set can be described thus: Immunoadjuvant activity in ovalbumin-induced NIH/OlaHsd mouse model of adjuvancy assessed as induction of ovalbumin-specific humoral immune response by measuring increase in anti-OVA IgG level in serum at 200 ug, sc using liposome encapsulated compound measured on day 7 post second booster by ELISA. The format is functional, organism-based. On the technique in general: An ELISA detects its analyte on a solid surface through an enzyme-linked reagent.

The nature of data set [16]: Cytotoxicity against HEK-Blue cells over-expressing NOD2 assessed as residual metabolic activity at 20 uM after 18 hrs by CellTiter 96 aqueous one solution cell proliferation assay relative to control. The following applies: human, read-out: Activity. The format is ADME, cell-based.
The test system of data set [17] is PBMC. The data set is described as follows: Immunostimulatory activity in human PBMC assessed as increase in IFNgamma release at 2 uM after 18 hrs in presence of LPS by flow cytometry. The format is functional, cell-based.
Data set [18] in a line: Drug level in HEK293 cells cytosol at 2 uM after 18 hrs by LC-MS analysis. The format is ADME, cell-based. Conditions: human.
Data set [19] addresses T2, Nucleotide-binding oligomerization domain-containing protein 2 (Homo sapiens, UniProt Q9HC29). The data set can be described thus: Agonist activity at human NOD2 expressed in HEK-Blue cells assessed as induction of NF-kB transcriptional activity at 2 uM after 18 hrs by SEAP reporter gene assay relative to control. The format is cell-based. (A reporter such as luciferase makes a cellular process visible.)

Data set [20] has as its target T2, Nucleotide-binding oligomerization domain-containing protein 2. The data set can be described thus: Agonist activity at human NOD2 expressed in HEK-Blue cells assessed as induction of NF-kB transcriptional activity at 20 uM after 18 hrs by SEAP reporter gene assay. The format is cell-based.
For data set [21] the target is unchanged. The data set is described as follows: Agonist activity at human NOD2 expressed in HEK-Blue cells assessed as induction of NF-kB transcriptional activity after 18 hrs by SEAP reporter gene assay. The format is cell-based.
Data set [22] shares this target. The data set can be described thus: Agonist activity at human NOD2 expressed in HEK-Blue cells assessed as induction of NF-kB transcriptional activity at 2 uM after 18 hrs in presence of NOD2 antagonist GSK-669 by SEAP reporter gene assay. The format is cell-based.
Data set [23] concerns Mus musculus. The data set is described as follows: Immunoadjuvant activity in ovalbumin-induced NIH/OlaHsd mouse model of adjuvancy assessed as modulation of Th1/Th2-bias of induced immune response by measuring ratio of anti-OVA IgG1 to anti-OVA IgG2a level in serum at 200 ug, sc using liposome encapsulated compound measured on day 7 post second booster by ELISA (reference value: 1.69 +/- 0.28). The format is functional.

The source made the active and inactive calls. No cut-off for these calls is given here.

For orientation: EC50 means the concentration at which the effect is half-maximal.

T2 sequence (Q9HC29 whole entry, the tested form may be a part): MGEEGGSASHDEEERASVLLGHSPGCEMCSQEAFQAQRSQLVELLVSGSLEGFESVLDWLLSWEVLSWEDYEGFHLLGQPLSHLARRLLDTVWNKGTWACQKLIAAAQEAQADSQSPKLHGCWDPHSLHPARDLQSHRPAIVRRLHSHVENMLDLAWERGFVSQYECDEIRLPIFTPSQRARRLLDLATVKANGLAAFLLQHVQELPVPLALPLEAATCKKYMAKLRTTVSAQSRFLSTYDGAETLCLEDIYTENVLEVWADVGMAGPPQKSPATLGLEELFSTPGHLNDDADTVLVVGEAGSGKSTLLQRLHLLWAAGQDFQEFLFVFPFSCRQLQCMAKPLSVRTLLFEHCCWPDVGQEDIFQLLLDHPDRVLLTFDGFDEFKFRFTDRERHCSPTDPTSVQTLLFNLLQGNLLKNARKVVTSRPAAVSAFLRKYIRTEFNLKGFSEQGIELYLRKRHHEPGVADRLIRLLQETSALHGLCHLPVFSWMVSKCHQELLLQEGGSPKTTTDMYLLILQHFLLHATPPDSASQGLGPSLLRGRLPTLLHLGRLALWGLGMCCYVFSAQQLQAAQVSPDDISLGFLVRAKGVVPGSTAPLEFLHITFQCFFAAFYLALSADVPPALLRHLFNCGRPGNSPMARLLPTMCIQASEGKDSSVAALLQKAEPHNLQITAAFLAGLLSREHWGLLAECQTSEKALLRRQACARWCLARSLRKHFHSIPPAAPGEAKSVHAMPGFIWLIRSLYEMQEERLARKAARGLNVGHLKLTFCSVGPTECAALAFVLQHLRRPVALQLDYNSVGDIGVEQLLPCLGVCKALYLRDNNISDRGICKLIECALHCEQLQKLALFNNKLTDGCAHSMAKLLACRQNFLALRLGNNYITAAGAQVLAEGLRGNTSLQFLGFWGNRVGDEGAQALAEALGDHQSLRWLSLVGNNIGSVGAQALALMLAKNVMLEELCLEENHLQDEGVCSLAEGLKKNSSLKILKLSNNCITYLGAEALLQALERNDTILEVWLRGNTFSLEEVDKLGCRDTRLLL

`CCOC(=O)CC[C@@H](NC(=O)[C@@H](NC(=O)CNC(=O)/C=C/c1ccc(O)c(OC)c1)C(C)C)C(=O)OCC`: the result in data set [1] was inactive. The result in the data set on PBMC [2], in the data set on PBMC [3], in the data set on PBMC [4], with PBMC [5], with PBMC [6] and in the data set on PBMC [12] was Active. In addition, the outcome with Mus musculus [15] and in the data set with PBMC [17] was Active. The Retention_time in data set [7] is recorded as 3.53 min. The entries for the “fold change (FC)” value in the data set with PBMC [8], in the data set with PBMC [11] and in the data set with PBMC [14] were 5, 4 and 3, respectively. For the same compound, the Activity result in data set [9] is on record as “Non-Toxic”. Besides, the Stability result in data set [10] is reported as “Stable”. In addition, the Drug uptake is 40% in data set [13] and 0.13 µM in data set [18]. In data set [16], the viability at 18 h, 20 µM was > 80%.
Regarding `COc1cc(/C=C/C(=O)NCC(=O)N[C@H](C(=O)N[C@H](CCC(=O)O)C(=O)O)C(C)C)ccc1O`, the outcome in [1] and in data set [22] was inactive. For the same compound, in data set [19], the fold change (FC) was found to be 2.7. In addition, the result in data set [20] was Active. For the same compound, the Retention_time in data set [7] turned out to be 2.88 min. Further, in [10], the Stability entry is listed as “Stable”. In [21], the EC50 was 6.98 µM. The viability at 18 h, 20 µM in [16] was > 80%. In [18], the Drug uptake was 0.4 µM.
For `CC(=O)N[C@H]1C(O)O[C@H](CO)[C@@H](O)[C@@H]1O[C@H](C)C(=O)N[C@@H](C)C(=O)N[C@H](CCC(=O)O)C(N)=O` (stereo partly specified) [MURAMYL DIPEPTIDE], the outcome in data set [1] and in [22] was inactive. The result in the data set on PBMC [2], with PBMC [3], in the data set on PBMC [4], with PBMC [5], in the data set with PBMC [6] and in the data set with PBMC [12] was Active. Further, the outcome in the data set with Mus musculus [15] and with PBMC [17] was Active. For the same compound, the fold change (FC) in data set [19] is 5.6; with PBMC [8], 5; in the data set with PBMC [11] it was 4; in the data set with PBMC [14] it was 3.6. The Activity entry in [21] is “Dose-dependent effect”. In addition, in data set [21], the EC50 came out at 0.092 µM. For the same compound, the viability at 18 h, 20 µM in [16] is > 80%. The Ratio in the data set with Mus musculus [23] is reported as 133. Further, in the data set on Mus musculus [23], the “log(ratio)” value worked out at 2.37.

These data come from ChEMBL document CHEMBL4020846 (J Med Chem, 2018).
